Reference: patent publication US8426453B2 (Astellas Pharma Inc., priority 2006, dated 2013)

What was measured:
SD rats [1] = assay: Gastric ulcer model (diclofenac-induced ulcer in gastric corpus); type: in vivo; conditions: 1 hour before diclofenac 40 mg/kg oral, measured 6 hours after diclofenac
Procedure: A test compound was suspended in a 0.5% methyl cellulose (MC) solution to prepare a chemical liquid having a concentration 5 ml/kg; and this was orally administered to SD rats (n=12 in each group). The test compound was controlled to be 10 mg/kg or 30 mg/kg. A control group was separately prepared, in which 5 ml/kg of the 0.5% MC solution was orally administered to the rats. After 1 hour, 40 mg/kg of NSAID, diclofenac (by Sigma) was orally administered to all rats of all groups, as a suspension in 0.5% MC solution (5 ml/kg). In 6 hours after the diclofenac administration, the length of the ulcer formed in the gastric corpus was measured using a stereomicroscope (by Nikon) and a micrometer (by Olympus), and the data of 12 cases were averaged. The antiulceration potency (%) of the test compound was computed according to the following formula: Antiulceration Potency (%): [1−(mean ulcer length of compound-administered group/mean ulcer length of 0.5% MC-administered group)]×100.

[2] = biological target: T1, xanthine oxidase (derived from butter milk, by Sigma) (Bos taurus, UniProt P80457); assay: Xanthine oxidase inhibiting activity (pterin fluorescence assay); type: biochemical; conditions: xanthine oxidase 0.03 units/ml, pterin 5 μM, room temperature
T1 construct: xanthine oxidase (derived from butter milk, by Sigma); purchased Sigma; host or cells: butter milk (natural source)
Procedure: A test compound was dissolved in DMSO (by Nacalai) to have a concentration of 10 mM, and then just before use, its concentration was adjusted to a desired one.
The xanthine oxidase inhibitory activity of the compound of the present invention was evaluated according to a partly modified method of a method described in a reference “Free Radic. Biol. Med. 6, 607-615, 1992”. Concretely, xanthine oxidase (derived from butter milk, by Sigma) was mixed with 50 mM phosphate buffer to be 0.03 units/ml, and applied to a 96-well plate in an amount of 50 μl/well. The test compound diluted to have a final concentration was added to the plate in an amount of 2 μl/well, and processed at room temperature for 20 minutes. Pterin (by Sigma) was added to it to have a final concentration of 5 μM in an amount of 50 μl/well, and reacted at room temperature for 10 minutes. Under a condition of excitation at 345 nm and emission at 390 nm (pterin is oxidized by xanthine oxidase to give isoxanthopterin, and under the condition it emits light), the sample was analyzed using a microplate reader sapphire (by Tacan).
The light emission by isoxanthopterin in the presence or absence of xanthine oxidase was defined as 0% inhibition and 100% inhibition, respectively, and the concentration (IC50) of the test compound for 50% inhibition was computed.

SD rats [3] = assay: Small intestine ulcer model (indomethacin-induced ulcer); type: in vivo; conditions: 10 mg/kg oral, 1 hour before and 9 hours after indomethacin 10 mg/kg oral, measured after 24 hours
Procedure: A test compound was suspended in a 0.5% methyl cellulose (MC) solution to prepare a chemical liquid having a concentration 5 ml/kg; and this was orally administered to SD rats (n=10 in each group). The test compound was controlled to be 10 mg/kg in every case. A control group was separately prepared, in which 5 ml/kg of the 0.5% MC solution was orally administered to the rats. After 1 hour, 10 mg/kg of NSAID, indomethacin (by Sigma) was orally administered to the rats, as a suspension in 0.5% MC solution (5 ml/kg). In 9 hours after the indomethacin administration, the test compound was again orally administered to every rat in the same amount as previously; and after 24 hours, the area of the ulcer formed in the small intestine was measured using a stereomicroscope (by Nikon) and a micrometer (by Olympus), and the data of 10 cases were averaged. The antiulceration potency (%) of the test compound was computed according to the following formula: Antiulceration Potency (%): [1−(mean ulcer area of compound-administered group/mean ulcer area of 0.5% MC-administered group)]×100.

T1 sequence (P80457 whole entry): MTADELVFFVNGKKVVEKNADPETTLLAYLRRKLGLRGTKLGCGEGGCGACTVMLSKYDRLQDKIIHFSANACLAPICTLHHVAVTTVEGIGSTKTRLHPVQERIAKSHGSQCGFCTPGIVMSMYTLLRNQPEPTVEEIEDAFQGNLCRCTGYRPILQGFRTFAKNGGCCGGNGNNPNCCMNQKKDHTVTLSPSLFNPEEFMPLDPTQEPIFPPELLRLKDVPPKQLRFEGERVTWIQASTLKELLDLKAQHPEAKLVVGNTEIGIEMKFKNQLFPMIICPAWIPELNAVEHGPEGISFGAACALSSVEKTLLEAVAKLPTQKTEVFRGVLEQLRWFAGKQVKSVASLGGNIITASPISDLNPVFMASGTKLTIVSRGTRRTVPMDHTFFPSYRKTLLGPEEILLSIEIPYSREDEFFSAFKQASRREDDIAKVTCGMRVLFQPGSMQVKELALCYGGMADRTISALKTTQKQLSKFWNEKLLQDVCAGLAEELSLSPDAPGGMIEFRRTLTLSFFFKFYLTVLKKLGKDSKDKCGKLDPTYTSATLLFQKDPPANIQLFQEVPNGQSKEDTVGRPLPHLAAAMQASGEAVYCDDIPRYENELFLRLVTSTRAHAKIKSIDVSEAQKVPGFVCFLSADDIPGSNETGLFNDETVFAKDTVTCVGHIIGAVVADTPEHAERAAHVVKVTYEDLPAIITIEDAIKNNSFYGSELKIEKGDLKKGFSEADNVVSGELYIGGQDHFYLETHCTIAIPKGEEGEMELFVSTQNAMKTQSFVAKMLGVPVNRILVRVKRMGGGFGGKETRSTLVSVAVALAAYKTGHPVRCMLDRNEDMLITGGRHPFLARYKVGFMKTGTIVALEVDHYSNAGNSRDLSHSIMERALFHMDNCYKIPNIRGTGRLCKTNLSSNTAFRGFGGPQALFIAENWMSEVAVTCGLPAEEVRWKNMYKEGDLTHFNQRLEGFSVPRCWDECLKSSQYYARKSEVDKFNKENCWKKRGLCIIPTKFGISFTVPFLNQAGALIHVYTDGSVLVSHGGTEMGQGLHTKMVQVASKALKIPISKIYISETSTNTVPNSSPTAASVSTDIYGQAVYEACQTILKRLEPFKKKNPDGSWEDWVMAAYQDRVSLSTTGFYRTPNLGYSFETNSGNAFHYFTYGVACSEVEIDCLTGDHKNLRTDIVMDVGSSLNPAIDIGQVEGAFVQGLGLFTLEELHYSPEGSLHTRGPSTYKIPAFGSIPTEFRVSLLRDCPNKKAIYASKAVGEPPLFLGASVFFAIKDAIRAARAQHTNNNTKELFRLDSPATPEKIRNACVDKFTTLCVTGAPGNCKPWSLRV

SMILES	IC50 [2] [nM]	also measured
Cc1nc(-c2ccc(OCC(C)C)c(C#N)c2)sc1C(=O)O [Compound A, 2-(3-cyano-4-isobutyloxyphenyl)-4-methyl-1,3-thiazole-5-carboxylic acid]		Antiulceration potency (inhibitory potency), mean ulcer length in gastric corpus vs 0.5% MC group (SD rats [1]; 30 mg/kg oral): 36%
CC(C)(C)COc1ccc(-n2cc(C(=O)O)cn2)cc1C#N [Compound B, 1-(3-cyano-4-neopentyloxyphenyl)-1H-pyrazole-4-carboxylic acid]		Antiulceration potency (inhibitory potency), mean ulcer length in gastric corpus vs 0.5% MC group (SD rats [1]; 30 mg/kg oral): 43%
CC(C)COc1ccc(-c2cc(C(=O)O)ccn2)cc1C(F)(F)F [Example 30]	6.3	
CC(C)CSc1ccc(-c2cc(C(=O)O)ccn2)cc1C#N [Example 53]	2.5	
N#Cc1cc(-c2ccc(C(=O)O)s2)cc(F)c1OC1CCCC1 [Example 119]	1.5	
Oc1ncnc2[nH]ncc12 [allopurinol, reference compound]		Antiulceration potency (inhibitory potency), mean ulcer length in gastric corpus vs 0.5% MC group (SD rats [1]; 30 mg/kg oral): no inhibitory potency was confirmed; Antiulceration potency (inhibitory potency), mean ulcer area in small intestine vs 0.5% MC group (SD rats [3]): no inhibitory potency was confirmed
N#Cc1cc(-c2cc(C(=O)[O-])ccn2)ccc1-c1ccccc1.[Na+] [compound 8]		Antiulceration potency (inhibitory potency), mean ulcer length in gastric corpus vs 0.5% MC group (SD rats [1]; 30 mg/kg oral): 72%; Antiulceration potency (inhibitory potency), mean ulcer area in small intestine vs 0.5% MC group (SD rats [3]): 29%
N#Cc1cc(-c2cc(C(=O)O)ccn2)ccc1-c1ccc(F)cc1 [compound 133]	≤ 20	
COc1ccccc1-c1ccc(-c2cc(C(=O)O)ccn2)cc1C#N [compound 138]	≤ 20	
N#Cc1cc(-c2cc(C(=O)O)ccn2)ccc1-c1ccsc1 [compound 141]	≤ 20	
N#Cc1ccc(-c2ccc(-c3cc(C(=O)O)ccn3)cc2C#N)cc1 [compound 143]	≤ 20	
N#Cc1cc(-c2cc(C(=O)O)ccn2)ccc1-c1ccco1 [compound 145]	≤ 20	
CC(C)(C)c1ccc(-c2ccc(-c3cc(C(=O)O)ccn3)cc2C#N)cc1 [compound 153]	≤ 20	
N#Cc1cc(-c2cc(C(=O)O)ccn2)ccc1-c1ccc(Oc2ccccc2)cc1 [compound 166]	≤ 20	
N#Cc1cc(-c2cc(C(=O)O)ccn2)ccc1-c1ccc2c(c1)OCO2 [compound 169]	≤ 20	
N#Cc1cc(-c2cc(C(=O)O)ccn2)ccc1-n1ncc2ccccc21 [compound 179]	≤ 20	
Cc1nc(-c2ccc(-c3ccccc3)c(C#N)c2)sc1C(=O)O [compound 237]	≤ 20	Antiulceration potency (inhibitory potency), mean ulcer length in gastric corpus vs 0.5% MC group (SD rats [1]; 10 mg/kg oral): 32%; Antiulceration potency (inhibitory potency), mean ulcer area in small intestine vs 0.5% MC group (SD rats [3]): 59%
Cc1nc(-c2ccc(-c3ccc(OC(F)(F)F)cc3)c(C#N)c2)sc1C(=O)O [compound 240]	≤ 20	
Cc1cccc(-c2ccc(-c3nc(C)c(C(=O)O)s3)cc2C#N)c1 [compound 243]	≤ 20	
N#Cc1cc(-c2ncc(C(=O)O)s2)ccc1-c1ccccc1 [compound 250]	≤ 20	Antiulceration potency (inhibitory potency), mean ulcer area in small intestine vs 0.5% MC group (SD rats [3]): 73%
N#Cc1cc(-n2cc(C(=O)O)cn2)ccc1-c1ccccc1 [compound 251]	≤ 20	Antiulceration potency (inhibitory potency), mean ulcer length in gastric corpus vs 0.5% MC group (SD rats [1]; 30 mg/kg oral): 43%; Antiulceration potency (inhibitory potency), mean ulcer area in small intestine vs 0.5% MC group (SD rats [3]): 41%
Cc1ccc(-c2ccc(-n3cc(C(=O)O)cn3)cc2C#N)cc1 [compound 252]	≤ 20	
